Experimental data as given in patent US20100183530A1, “Cosmetic compositions comprising 4-carboxy-2-pyrrolidinone esters and triazine lipophilic UV-screening agents” (L'OREAL, priority 2008, published 2010).

Experiment: Solubility of lipophilic triazine screening agents in oils (prior art solvents and solvents of the invention)
Type: physicochemical
Conditions: weight/weight, solution left at laboratory temperature for 1 month, no crystal or oily deposit
[1] = oil: Caprylic/capric acid triglycerides
[2] = oil: Compound (m) of the invention
[3] = oil: Isopropyl N-lauroylsarcosinate

Compound | solubility of the screening agent in the oil (oil: C12-C15 alkyl benzoate) [%] | solubility of the screening agent in the oil [1] [%] | solubility of the screening agent in the oil [2] | solubility of the screening agent in the oil [3] | solubility of the screening agent in the oil (oil: 2-Phenylethyl benzoate) [%] | solubility of the screening agent in the oil (oil: Compound (I) of the invention) [% gel] | solubility of the screening agent in the oil (oil: Compound (ii) of the invention) [% gel] | solubility of the screening agent in the oil (oil: Compound (j) of the invention) [% gel] | solubility of the screening agent in the oil (oil: Compound (v) of the invention) [%]
2,4-bis(isobutyl 4′-aminobenzalmalonate)-6-[(3-{1,3,3,3-tetramethyl-1-[(trimethylsilyl)oxy]disiloxanyl}propyl)amino]-1,3,5-triazine [Screening agent 2] | 8 | 6 | 60% gel | 35% | – | – | – | – | –
CC(C)(C)COC(=O)C(=Cc1ccc(Nc2nc(Nc3ccc(C=C(C(=O)OCC(C)(C)C)C(=O)OCC(C)(C)C)cc3)nc(Nc3ccc(C=C(C(=O)OCC(C)(C)C)C(=O)OCC(C)(C)C)cc3)n2)cc1)C(=O)OCC(C)(C)C [Screening agent 1, Dineopentyl 2-[4-({4,6-bis[(4-{3-(neopentyloxy)-2-[(neopentyloxy)carbonyl]-3-oxoprop-1-enyl}phenyl)amino]-1,3,5-triazin-2-yl}amino)benzylidene]malonate] | – | – | 60% gel | 40% gel | – | – | – | – | –
CCCCOC(=O)c1ccc(Nc2nc(Nc3ccc(C=C(C(=O)OCC(C)(C)C)C(=O)OCC(C)(C)C)cc3)nc(Nc3ccc(C=C(C(=O)OCC(C)(C)C)C(=O)OCC(C)(C)C)cc3)n2)cc1 [Screening agent 3, Dineopentyl 2-[4-({4-{[4-(butoxycarbonyl)phenyl]amino}-6-[(4-{3-(neopentyloxy)-2-[(neopentyloxy)carbonyl]-3-oxoprop-1-enyl}phenyl)amino]-1,3,5-triazin-2-yl}amino)benzylidene]malonate] | – | – | 60% gel | 40% gel | – | – | – | – | –
CC(C)(C)COC(=O)C(=Cc1ccc(Nc2nc(Nc3ccc(C=C(C(=O)OCC(C)(C)C)C(=O)OCC(C)(C)C)cc3)nc(Nc3ccc(C(=O)NC(C)(C)C)cc3)n2)cc1)C(=O)OCC(C)(C)C [Screening agent 4, Dineopentyl 2-[4-({4-({4-[(tert-butylamino)carbonyl]phenyl}amino)-6-[(4-{3-(neopentyloxy)-2-[(neopentyloxy)carbonyl]-3-oxoprop-1-enyl}phenyl)amino]-1,3,5-triazin-2-yl}amino)benzylidene]malonate] | – | – | 60% gel | 40% gel | – | – | – | – | –
CC(C)(C)CC(C)(C)NC(=O)c1ccc(Nc2nc(NCCC[Si](C)(O[Si](C)(C)C)O[Si](C)(C)C)nc(Nc3ccc(C(=O)NC(C)(C)CC(C)(C)C)cc3)n2)cc1 [Screening agent 5, N-(1,1,3,3-tetramethylbutyl)-4-({4-[(4-{[(1,1,3,3-tetramethylbutyl)amino]carbonyl}phenyl)amino]-6-[(3-{1,3,3,3-tetramethyl-1-[(trimethylsilyl)oxy]disiloxanyl}propyl)amino]-1,3,5-triazin-2-yl}amino)benzamide] | – | – | 60% gel | 40% gel | – | – | – | – | –
CCCCOC(=O)c1ccc(Nc2nc(NCCC[Si](C)(O[Si](C)(C)C)O[Si](C)(C)C)nc(Nc3ccc(C(=O)OCCCC)cc3)n2)cc1 [Screening agent 8, Butyl 4-({4-{[4-(butoxycarbonyl)phenyl]amino}-6-[(3-{1,3,3,3-tetramethyl-1-[(trimethylsilyl)oxy]disiloxanyl}propyl)amino]-1,3,5-triazin-2-yl}amino)benzoate] | 28 | 31 | 60% gel | 40% gel | 27 | 60 | 60 | 60 | –
CCCCC(CC)COc1ccc(-c2nc(-c3ccc(OC)cc3)nc(-c3ccc(OCC(CC)CCCC)cc3O)n2)c(O)c1 (centres unmarked) [Screening agent 10, 5-[(2-Ethylhexyl)oxy]-2-[4-{4-[(2-ethylhexyl)oxy]-2-hydroxyphenyl}-6-(4-methoxyphenyl)-1,3,5-triazin-2-yl]phenol] | – | – | 18% | 10% | – | – | – | – | 20
